The source of these data is patent US12064641B2, “Bactericidal methods and compositions” (Pulsethera, Inc., priority 2019, dated 2024).

SMILES strings stand for the structures. Read-outs that look alike come from different tables or passages of the source.

Experiment [1] deals with Salmonella enterica. The following applies: ns-410 nm combined with H2O2 22 mM. The text has this:
(§1) CFU experiments to test the potential synergy between photoinactivation of catalase and H2O2: Overnight-cultured bacteria was centrifuged, the supernatant was discarded, and the pellet was resuspended with the same amount of PBS. The laser source used in the study is nanosecond (ns) pulsed OPO laser purchased from OPOTEK Inc, model number as Opolette HE355 LD, having the following key specifications: wavelength range, 410-2400 nm; pulse repetition rate, 20 Hz; maximum pulse energy at 460 nm, 8 mJ; pulse duration, 5 nanosecond; spectral linewidth, 4-6 cm-1; and pulse-to-pulse stability, <5%. For each bacterial strain there were four groups: untreated one, ns-410 nm-treated group, H2O2 (22 or 44 mM)-treated group, ns-410 nm plus H2O2 (22 or 44 mM)-treated group. Dose for ns-410 nm exposure was 15 J/cm^2. H2O2 was incubated with bacteria for 30 min at 37° C. with the shaking speed of 200 rpm. After incubation, bacterial burden from each group was serial diluted, inoculated onto TSA plates, then counted by enumeration of these plates.

Experiment [2] concerns stationary-phase MRSA USA300.
Text: as §1

The test system of experiment [3] is stationary-phase Pseudomonas aeruginosa.
Text: as §1

In experiment [4] the test system is Candida albicans SC5314. The method, then:
CFU test to quantify the treatment efficacy: Quantification of antifungal treatment schemes were achieved as following: overnight cultured fungal specimen was washed by sterile PBS. And log-phase fungal pathogens were prepared by dilution into fresh YPD broth at a ratio of 1:50 and cultured for another 2-3 hours at 30° C. with the shaking speed of 200 rpm. After that, the fungal concentration was adjusted to be around 1×10^8 cells/ml by centrifuging or further dilution with PBS. 10 μl of the above fungal solution was exposed to 410 nm for 5 min (150 mW/cm^2). After that, the exposed sample was collected into 990 μl of sterile PBS, then supplemented with treatment agents. Later, CFU of fungal cells was enumerated by serial dilution and cultured in YPD agar plates for 48 hours.

In experiment [5] the test system is CASC5314. The following applies: 410 nm plus low-concentration H2O2; log-phase or stationary-phase. Here is the method:
(§2) PrestoBlue viability assay: First log-phase fungal pathogens were prepared by diluting overnight-cultured fungal pathogens into fresh YPD broth at a ratio of 1:50 and cultured for another 2-3 hours at 30 C with the shaking speed of 200 rpm. After that, the fungal concentration was adjusted to be around 1×10^8 cells/ml by centrifuging or further dilution with PBS. 10 μl of the above fungal solution was exposed to 410 nm for 5 min (150 mW/cm^2). After that, the exposed sample was collected into 990 μl of sterile PBS, then supplemented with treatment agents. Aliquots were made from the above sample into a 96-well plate, with each well containing 100 μl. Then 100 μl sterile YPD broth and 23 μl of PrestoBlue were added into the same well. Fluorescence signal at 590 nm from each well was recorded in a time-course (up to 18 hours with the interval of 30 min) manner at an excitation of 560 nm. For each strain, in order to know the exact number of fungal pathogens in each well, the corresponding fluorescence signals were recorded from fungal pathogens with known numbers, however no external treatments.

The subject of experiment [6] is clinical fungal isolates. The following applies: 410 nm plus H2O2; more than twenty different clinical fungal isolates. The method, then: as §2
The test system of experiment [7] is C. auris strains. Put plainly: PrestoBlue viability assay, amp B. In kind it is cell-based, Candida auris.
The test system of experiment [8] is MRSA USA300. The experiment is described as follows: Spread agar plates, photoinactivation of catalase with silver cation. The format is cell-based, methicillin-resistant Staphylococcus aureus.
Experiment [9] has as its system E. coli BW25113. The experiment is described as follows: CFU, photoinactivation of catalase with silver cation. The format is cell-based, Escherichia coli. The following applies: 30 and 60 minutes.
Experiment [10] deals with E. coli BW25113. Put plainly: CFU test of synergy between photoinactivation of catalase and ROS-generating antibiotics. In kind it is cell-based, Escherichia coli. The following applies: ns-410 nm (15 J/cm2) plus tobramycin 2 μg/ml, 4-hour incubation. Here is the method: (§3) Then prior to any treatments, the above solution was incubated with antibiotics (10 μg/ml) for 1 hour. For each bacterial strain, four groups were tested: untreated one, ns-410 nm-treated group, antibiotic (2 μg/ml)-treated group, ns-410 nm plus antibiotic (2 μg/ml)-treated group. Dose for ns-410 nm exposure was 15 J/cm2.

For experiment [11], the system named is Enterococcus faecalis NR-31970. Put plainly: CFU test of synergy between photoinactivation of catalase and ROS-generating antibiotics (catalase-negative control). The format is cell-based. The following applies: ns-410 nm plus tobramycin 2 μg/ml, 4-hour incubation; catalase-negative strain. The method, then: as §3
The mark [12] stands for this setting: H2O2 22 mM after photoinactivation of catalase (15 J/cm2).

Consider `OO` [H2O2, hydrogen peroxide], for which, in [1], the enhanced killing effect entry is on record as “around five”. Also, the “killing efficacy, ns-410 nm plus H2O2 compared to CW-410 nm plus H2O2” value in [2] (FIG. 6) and in [3] (FIG. 6) was “significantly more effective” each time. For the same compound, the “reduction of bacterial burden” value in experiment [2] (setting [12]) is recorded as no less than 3 log 10 reduction; in [2] (ns-410 nm (15 J/cm2) in combination with H2O2 22 mM), “approximately four”; in experiment [2] (ns-430 nm combined with H2O2 22 mM), “around 99%”; in experiment [2] (ns-450 or ns-460 nm combined with H2O2 22 mM), “around 90%”; in [2] (ns-470 nm combined with H2O2 22 mM), “around 50%”; in experiment [3] (setting [12]) it was no less than 3 log 10 reduction. Besides, the antimicrobial effect result in experiment [2] (ns-480 nm combined with H2O2 22 mM) is listed as “barely exerts an antimicrobial effect”. Further, the eradication entry is reported as “total eradication” in experiment [3] (H2O2 22 mM combined with 410 nm exposure (15 J/cm2)) and “total eradication” in experiment [4] (ns-410, ns-420 or ns-430 combined with H2O2 44 mM). Besides, in experiment [3] (H2O2 alone, 22 mM), the “antimicrobial effect (CFU ml-1)” value is listed as “didn't exert any significant antimicrobial effect”. In addition, the “enhancement of the function of H2O2 after photoinactivation of catalase” value in [4] (410 nm exposure then H2O2, FIG. 11) is on record as “more than five”. For the same compound, the “killing effect (CFU ml-1)” value in experiment [4] (H2O2 alone, 44 mM (0.15%), 1.5-hour incubation, stationary-phase) is listed as “doesn't exert significant killing effect”. Also, the “eradication (time-killing, CFU)” value in experiment [4] (low-concentration H2O2 after 410 nm exposure, FIG. 11) is “eradication was achieved”. Further, the “reduction of fungal burden” value in [4] (ns-450 or ns-480 nm combined with H2O2 44 mM) is “reduced a similar amount of fungal burden as H2O2-alone”. Moreover, the reduction of burden result in experiment [4] (ns-light (24 J/cm^2) in combination with H2O2 44 mM) was “around four”. Moreover, the “effect of photoinactivation of catalase on killing by H2O2 (PrestoBlue fluorescence)” value in [5] is “always boosts the killing effect”. Further, the “killing by synergistic therapy (PrestoBlue)” value in [6] is reported as “significant killing was consistently found”.

As to `C[C@@H]1[C@H](O)[C@@H](C)/C=C/C=C/C=C/C=C/C=C/C=C/C=C/[C@H](O[C@@H]2O[C@H](C)[C@@H](O)[C@H](N)[C@@H]2O)C[C@@H]2O[C@](O)(C[C@@H](O)C[C@@H](O)[C@H](O)CC[C@@H](O)C[C@@H](O)CC(=O)O[C@H]1C)C[C@H](O)[C@H]2C(=O)O` [amp B, amphotericin B], in experiment [7] (410 nm plus amp B, same result with 410 nm without amp B, ten strains), the “eradication (PrestoBlue fluorescence)” value was “total eradication”. Moreover, the “susceptibility (PrestoBlue fluorescence)” value in experiment [7] (amp B alone, without photoinactivation of catalase) is “some C. auris strains were resilient”.

Take `[Ag+]` [silver cation]: the MRSA eliminated entry in [8] (ns-410 nm combined with 10 μM silver cation, one hour after treatment) was “about 90%”. Further, the antimicrobial effect result in experiment [8] (silver cation alone) is reported as “does not exert any significant antimicrobial effect”. The “killing effect (CFU ml-1)” value in experiment [9] (0.5 μM Ag+ alone) is “doesn't exert any significant killing effect”. The “reduction of bacterial burden” value is on record as “didn't significantly reduce bacterial burden” in [9] (CW-410 (22 J/cm^2) combined with 0.5 μM Ag+) and “around 99%” in experiment [9] (ns-410 (22 J/cm^2) in combination with 0.5 μM Ag+).

Turning to `NC[C@H]1O[C@H](O[C@H]2[C@H](O)[C@@H](O[C@H]3O[C@H](CO)[C@@H](O)[C@H](N)[C@H]3O)[C@H](N)C[C@@H]2N)[C@H](N)C[C@@H]1O` [tobramycin, Tobramycin], the “enhancement of killing in combination-treated group” value in [10] is recorded as “More than 100 times”. Moreover, in experiment [11], the “enhanced killing effect in combination-treated group” value is recorded as “did not produce any enhanced killing effect”.
